This note sets out measurements from patent US20240247080A1, “GLP1/GIP/NPY2 RECEPTOR TRIPLE AGONISTS” (Boehringer Ingelheim International GmbH, priority 2022, published 2024).

Common to all, as to format: cell-based
What all share (conditions): CreLuc reporter gene assay
Background: Reporter assays use an easily measured gene product as a stand-in for the process of interest.

For assay [1], the target named is T1, hGLP1R (Homo sapiens, UniProt P43220).
T1 construct: expressed in transfected cells; host or cells: HEK-293 cells carrying a CRE-luciferase reporter gene
Put plainly: hGLP1R CreLuc reporter gene assay in 0.5% and 100% plasma. An outline of the steps:
(§1)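 HEK-293 cells co-expressing GLP-1 or NPY2 receptor and CHO cells expressing GIP receptor, each carrying a CRE-driven luciferase reporter, were stimulated with peptides for 4 hours at 37 °C. Luminescence was read after Bright-Glo addition. EC50 came from 8-point, four-decade curves fitted by variable-slope non-linear regression.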

The target in assay [2] is T2, hNPY2R (Homo sapiens, UniProt P49146).
T2 construct: expressed in transfected cells; host or cells: HEK-293 cells carrying a CRE-luciferase reporter gene
T2 sequence (P49146 1-381): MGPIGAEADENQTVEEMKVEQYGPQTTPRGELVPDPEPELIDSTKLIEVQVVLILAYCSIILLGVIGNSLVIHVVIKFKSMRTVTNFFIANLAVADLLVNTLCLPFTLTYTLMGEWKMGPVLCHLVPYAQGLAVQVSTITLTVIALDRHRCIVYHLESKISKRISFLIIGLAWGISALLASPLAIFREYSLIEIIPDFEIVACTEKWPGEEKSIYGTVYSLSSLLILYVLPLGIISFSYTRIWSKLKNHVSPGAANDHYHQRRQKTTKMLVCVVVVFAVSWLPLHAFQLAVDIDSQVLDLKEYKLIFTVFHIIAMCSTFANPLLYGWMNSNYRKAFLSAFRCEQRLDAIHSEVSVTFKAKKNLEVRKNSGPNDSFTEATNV
Put plainly: hNPY2R CreLuc reporter gene assay in 0.5% and 100% plasma. An outline of the steps:
as §1

Assay [3] deals with T3, hGIPR (Homo sapiens, UniProt P48546).
T3 construct: expressed in transfected cells; host or cells: CHO cells carrying a CRE-luciferase reporter gene
T3 sequence (P48546 22-466): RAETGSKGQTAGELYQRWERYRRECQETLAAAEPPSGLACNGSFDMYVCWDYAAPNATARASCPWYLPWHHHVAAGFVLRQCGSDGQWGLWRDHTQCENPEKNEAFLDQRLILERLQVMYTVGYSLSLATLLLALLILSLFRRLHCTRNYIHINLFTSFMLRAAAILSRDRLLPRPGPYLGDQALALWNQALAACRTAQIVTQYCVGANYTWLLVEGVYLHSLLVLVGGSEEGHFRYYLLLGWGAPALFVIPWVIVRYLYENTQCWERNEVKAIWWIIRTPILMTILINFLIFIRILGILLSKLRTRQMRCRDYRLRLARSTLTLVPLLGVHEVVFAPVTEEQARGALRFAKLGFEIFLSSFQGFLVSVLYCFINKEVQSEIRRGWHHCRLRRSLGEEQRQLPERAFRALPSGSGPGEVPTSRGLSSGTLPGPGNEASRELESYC
The assay can be described thus: hGIPR CreLuc reporter gene assay in 0.5% and 100% plasma. The method, boiled down:
as §1

Where [4] appears, read: 0.5% human plasma, read-out: hGLP1R 0.5% hP.
Where [5] appears, read: 100% human plasma, read-out: hGLP1R 100% hP.
[6] abbreviates: 0.5% human plasma, read-out: hNPY2R 0.5% hP.
Where [7] appears, read: 0.5% human plasma, read-out: hGIPR 0.5% hP.
Where [8] appears, read: 100% human plasma, read-out: hGIPR 100% hP.
Where [9] appears, read: 100% human plasma, read-out: hNPY2R 100% hP.

Where two headings read alike, the source gives them in different places. Starred links: 1 amine or outer side, 2 acyl side, 3 side chain; linkers in the order of their positions; H or OH if unused. Non-standard residues stand in square brackets, D forms with d. Groups on a side chain read outwards from the residue. *: point of attachment. C20 diacid = O=C(O)CCCCCCCCCCCCCCCCCCC(=O)*; C18 diacid = O=C(O)CCCCCCCCCCCCCCCCC(=O)*; γGlu = O=C(O)[C@H](CCC(=O)[*:2])N[*:1]; εLys = N[C@@H](CCCCN[*:1])C(=O)[*:2]; AEEA = NCCOCCOCC(=O)O; Aib = CC(C)(N)C(=O)O

T1 sequence (P43220 24-463): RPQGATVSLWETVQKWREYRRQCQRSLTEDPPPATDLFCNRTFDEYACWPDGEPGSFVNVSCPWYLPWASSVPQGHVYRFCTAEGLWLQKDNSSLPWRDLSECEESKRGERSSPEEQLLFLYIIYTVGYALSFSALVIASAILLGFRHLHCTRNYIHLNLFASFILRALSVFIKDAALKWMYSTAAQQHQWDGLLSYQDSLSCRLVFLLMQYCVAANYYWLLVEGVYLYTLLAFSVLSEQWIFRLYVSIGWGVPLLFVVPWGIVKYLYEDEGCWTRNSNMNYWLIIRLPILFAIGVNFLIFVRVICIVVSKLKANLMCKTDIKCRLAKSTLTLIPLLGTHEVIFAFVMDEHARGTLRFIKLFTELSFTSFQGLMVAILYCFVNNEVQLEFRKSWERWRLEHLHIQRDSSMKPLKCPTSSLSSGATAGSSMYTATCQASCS

On to “H-Y[Aib]EGTFTSDYSI[Aib]LEEQAQ[Aib]AFVEWLIK([εLys-AEEA-AEEA-γGlu-γGlu-γGlu-γGlu-C20 diacid])GGPSSGASLRHYYNWLTRQRY-NH2 [Compound 100, Y-Aib-E-G-T-F-T-S-D-Y-S-I-Aib-L-E-E-Q-A-Q-Aib-A-F-V-E-W-L-I-K(1,3)-GGPSSGASLRHYYNWLTRQRY-NH2.C20DA-gGlu-gGlu-glu-gGlu-OEG-OEG-eLys(1,2)]”, for which the EC50 in assay [1] (setting [4]) stood at 0.12 nM; in assay [1] (setting [5]), 2.21 nM; in assay [2] (setting [6]) it was 11.2 nM; in assay [3] (setting [7]), 0.1 nM; in assay [3] (setting [8]) it was 0.87 nM.

Take “H-Y[Aib]EGTFTSDYSI[Aib]LEKQAQ[Aib]AFVEWLIK([εLys-γGlu-γGlu-γGlu-γGlu-γGlu-γGlu-C20 diacid])GGPSSGASLR[Aib]YYNWLTRQRY-NH2 [Compound 182, Y-Aib-E-G-T-F-T-S-D-Y-S-I-Aib-L-E-K-Q-A-Q-Aib-A-F-V-E-W-L-I-K(1,3)-G-G-P-S-S-G-A-S-L-R-Aib-Y-Y-N-W-L-T-R-Q-R-Y-NH2.C20DA-gGlu-gGlu-gGlu-gGlu-gGlu-gGlu-eLys(1,2)]”: the EC50 was determined as 0.13 nM in assay [1] (setting [4]), 70.4 nM in assay [2] (setting [6]), 0.21 nM in assay [3] (setting [7]) and 1.39 nM in assay [3] (setting [8]).

In the case of “H-Y[Aib]EGTFTSDYSI[Aib]LEKQAQ[Aib]EFVQWLIK([γGlu-γGlu-γGlu-γGlu-C18 diacid])GGPSEGASLRHYYNWLTRQRY-NH2 [Compound 202, Y-Aib-E-G-T-F-T-S-D-Y-S-I-Aib-L-E-K-Q-A-Q-Aib-E-F-V-Q-W-L-I-K(1,3)-GGPSEGASLRHYYNWLTRQRY-NH2.C18DA-gGlu-gGlu-gGlu-gGlu(1,2)]”, the EC50 in assay [1] (setting [4]) stood at 0.21 nM; in assay [1] (setting [5]), 10.4 nM; in assay [2] (setting [6]), 12.9 nM; in assay [3] (setting [7]), 0.26 nM; in assay [3] (setting [8]), 1.81 nM.

Turning to “H-Y[Aib]EGTFTSDYSI[Aib]LESQAQ[Aib]AFVEWLIK([εLys-γGlu-γGlu-γGlu-γGlu-γGlu-γGlu-C20 diacid])GGPSSGASLRHYYNWLTRQRY-NH2 [Compound 121, Y-Aib-E-G-T-F-T-S-D-Y-S-I-Aib-L-E-S-Q-A-Q-Aib-A-F-V-E-W-L-I-K(1,3)-GGPSSGASLRHYYNWLTRQRY-NH2.C20DA-gGlu-gGlu-gGlu-gGlu-gGlu-gGlu-eLys(1,2)]”, the EC50 stood at 0.18 nM in assay [1] (setting [4]), 23.8 nM in assay [2] (setting [6]) and 0.65 nM in assay [3] (setting [7]).

Consider “H-Y[Aib]EGTFTSDYSI[Aib]LEKQAQ[Aib]AFVEWLIK([γGlu-γGlu-γGlu-γGlu-γGlu-γGlu-C20 diacid])GGPSEGASLRHYYNWLTRQRY-NH2 [Compound 305, Y-Aib-E-G-T-F-T-S-D-Y-S-I-Aib-L-E-K-Q-A-Q-Aib-A-F-V-E-W-L-I-K(1,3)-GGPSEGASLRHYYNWLTRQRY-NH2.C20DA-gGlu-gGlu-gGlu-gGlu-gGlu-gGlu(1,2)]”, for which the EC50 is 0.29 nM in assay [1] (setting [4]), 18.3 nM in assay [2] (setting [6]), 0.65 nM in assay [3] (setting [7]) and 2.81 nM in assay [3] (setting [8]).

For the substance “H-Y[Aib]EGTFTSDYSI[Aib]LEKQAQ[Aib]AFVQWLIK([AEEA-AEEA-γGlu-γGlu-γGlu-γGlu-γGlu-C18 diacid])GGPESGASLRHYYNWLTRQRY-NH2 [Compound 55, Y-Aib-E-G-T-F-T-S-D-Y-S-I-Aib-L-E-K-Q-A-Q-Aib-A-F-V-Q-W-L-I-K(1,3)-GGPESGASLRHYYNWLTRQRY-NH2.C18DA-gGlu-gGlu-glu-gGlu-gGlu-OEG-OEG(1,2)]”, the EC50 in assay [1] (setting [4]) turned out to be 0.09 nM; in assay [1] (setting [5]), 4.17 nM; in assay [2] (setting [9]), 53.4 nM; in assay [3] (setting [7]), 0.12 nM.

Turning to “H-Y[Aib]EGTFTSDYSI[Aib]LEKQAQ[Aib]AFVQWLIK([εLys-γGlu-γGlu-γGlu-γGlu-γGlu-γGlu-C20 diacid])GGQRSYASLRHYYNWLTRQRY-NH2 [Compound 3, Y-Aib-E-G-T-F-T-S-D-Y-S-I-Aib-L-E-K-Q-A-Q-Aib-A-F-V-Q-W-L-I-K(1,3)-GGQRSYASLRHYYNWLTRQRY-NH2.C20DA-gGlu-gGlu-gGlu-gGlu-gGlu-gGlu-eLys(1,2)]”, the results for the EC50 in assay [1] (setting [4]), in assay [2] (setting [9]) and in assay [3] (setting [7]) were 0.45 nM, 23 nM and 0.53 nM, respectively.

Take “H-Y[Aib]EGTFTSDYSI[Aib]LEAAKQ[Aib]AFVEWLIK([εLys-γGlu-γGlu-γGlu-γGlu-γGlu-γGlu-C20 diacid])GGPSSGASLRHYYNWLTRQRY-NH2 [Compound 25, Y-Aib-E-G-T-F-T-S-D-Y-S-I-Aib-L-E-A-A-K-Q-Aib-A-F-V-E-W-L-I-K(1,3)-GGPSSGASLRHYYNWLTRQRY-NH2.C20DA-gGlu-gGlu-gGlu-gGlu-gGlu-gGlu-eLys(1,2)]”: the EC50 in assay [1] (setting [5]) turned out to be 14.2 nM; in assay [2] (setting [6]), 13 nM; in assay [3] (setting [7]) it was 0.98 nM.

For “H-Y[Aib]EGTFTSDYSI[Aib]LEKQAQ[Aib]AFVEWLIK([AEEA-AEEA-γGlu-γGlu-γGlu-C18 diacid])GGPEEGASLRHYYNWLTRQRY-NH2 [Compound 248, Y-Aib-E-G-T-F-T-S-D-Y-S-I-Aib-L-E-K-Q-A-Q-Aib-A-F-V-E-W-L-I-K(1,3)-GGPEEGASLRHYYNWLTRQRY-NH2.C18DA-gGlu-gGlu-gGlu-OEG-OEG(1,2)]”, the EC50 is 0.25 nM in assay [1] (setting [4]), 18.7 nM in assay [2] (setting [6]), 0.12 nM in assay [3] (setting [7]) and 0.79 nM in assay [3] (setting [8]).

“H-Y[Aib]EGTFTSDYSI[Aib]LEK(Ac)QAQ[Aib]AFVEWLIK([εLys-γGlu-γGlu-γGlu-γGlu-γGlu-γGlu-C20 diacid])GGPSSGASLRHYYNWLTRQRY-NH2 [Compound 192, Y-Aib-E-G-T-F-T-S-D-Y-S-I-Aib-L-E-KAc-Q-A-Q-Aib-A-F-V-E-W-L-I-K(1,3)-GGPSSGASLRHYYNWLTRQRY-NH2.C20DA-gGlu-gGlu-gGlu-gGlu-gGlu-glu-eLys(1,2)]”: the EC50 was determined as 0.13 nM in assay [1] (setting [4]), 20.5 nM in assay [2] (setting [6]) and 0.28 nM in assay [3] (setting [7]).

In the case of “H-Y[Aib]EGTFTSDYSI[Aib]LEKQAQ[Aib]AFVEWLIK([AEEA-AEEA-γGlu-γGlu-γGlu-γGlu-C20 diacid])GGPEEPASLRHYYNWLTRQRY-NH2 [Compound 206, Y-Aib-E-G-T-F-T-S-D-Y-S-I-Aib-L-E-K-Q-A-Q-Aib-A-F-V-E-W-L-I-K(1,3)-GGPEEPASLRHYYNWLTRQRY-NH2.C20DA-gGlu-gGlu-gGlu-gGlu-OEG-OEG(1,2)]”, the values for the EC50 in assay [1] (setting [5]), in assay [2] (setting [6]) and in assay [3] (setting [7]) were 17.2 nM, 13.4 nM and 0.25 nM, respectively.

Turning to “H-Y[Aib]EGTFTSDYSI[Aib]LEKQAQ[Aib]AFVEWLIK([AEEA-AEEA-γGlu-γGlu-γGlu-γGlu-γGlu-C18 diacid])GGPSSPASLRHYYNWLTRQRY-NH2 [Compound 140, Y-Aib-E-G-T-F-T-S-D-Y-S-I-Aib-L-E-K-Q-A-Q-Aib-A-F-V-E-W-L-I-K(1,3)-GGPSSPASLRHYYNWLTRQRY-NH2.C18DA-gGlu-gGlu-gGlu-gGlu-gGlu-OEG-OEG(1,2)]”, the EC50 in assay [1] (setting [4]) stood at 0.12 nM; in assay [1] (setting [5]), 3.11 nM; in assay [2] (setting [6]), 12.4 nM; in assay [2] (setting [9]) it was 45.9 nM; in assay [3] (setting [7]), 0.22 nM.

Take “H-Y[Aib]EGTFTSDYSI[Aib]LEKQAQ[Aib]AFVEWLIK([εLys-γGlu-γGlu-γGlu-γGlu-γGlu-γGlu-C20 diacid])GGPSEYVSLRHYYNWLTRQRY-NH2 [Compound 217, Y-Aib-E-G-T-F-T-S-D-Y-S-I-Aib-L-E-K-Q-A-Q-Aib-A-F-V-E-W-L-I-K(1,3)-GGPSEYVSLRHYYNWLTRQRY-NH2.C20DA-gGlu-gGlu-gGlu-gGlu-gGlu-gGlu-eLys(1,2)]”: the EC50 in assay [1] (setting [5]) amounted to 17.2 nM; in assay [2] (setting [6]), 18.6 nM; in assay [3] (setting [7]) it was 0.74 nM.

On to “H-Y[Aib]EGTFTSDYSI[Aib]LEKQAQ[Aib]AFVEWLIK([εLys-γGlu-γGlu-γGlu-γGlu-γGlu-γGlu-C20 diacid])GGPSSPESLRHYYNWLTRQRY-NH2 [Compound 73, Y-Aib-E-G-T-F-T-S-D-Y-S-I-Aib-L-E-K-Q-A-Q-Aib-A-F-V-E-W-L-I-K(1,3)-GGPSSPESLRHYYNWLTRQRY-NH2.C20DA-gGlu-gGlu-gGlu-gGlu-gGlu-gGlu-eLys(1,2)]”, for which the EC50 in assay [1] (setting [4]) is 0.19 nM; in assay [1] (setting [5]) it was 4.76 nM; in assay [2] (setting [9]), 107 nM; in assay [3] (setting [7]), 0.11 nM; in assay [3] (setting [8]), 1.61 nM.
